# Key:
# activated CD4+ T-cells [1] = test: In vitro chemokinesis of activated CD4+ T-cells towards CXCL10 (transwell); format: cell-based, mouse; details: for chemokinesis in vitro towards CXCL10 of pre-treated activated CD4+ T-cells: pre-treated overnight: Rapamycin 200 nM, 2-DG 1 mM, Metformin 2 mM
# Text: (§1) T-cell isolation, in-vitro activation and subset enrichment: T-cells were isolated from C57BL/6 murine lymph nodes and activated for 3 to 5 days with plate bound anti-CD3 and anti-CD28 antibodies (BioLegend), and IL-2 (PeproTech). CD4+ and CD8+ subsets were enriched with commercially available CD4+ and CD8+ T-cell isolation kits according to the manufacturer's instructions (Easysep, Invitrogen) either prior or post activation according to experimental settings. Chemokinesis assays: Chemokinesis assays were performed in 5 μm transwell inlays. In some experiments, T-cells were pre-treated overnight with a number of drugs purchased from Calbiochem: Rapamycin (200 nM), 2-DG (1 mM), Metformin (2 mM). […] 3×10^6 lymphocytes were seeded in the upper transwell chamber; chemokines were added to the lower chamber: CXCL10 (300 ng/ml), CCL5 (50 ng/ml), CCL19/21 (200 ng/ml of each chemokine). Migrated T-cells were counted with a hemocytometer 2, 4 and 6 hours after seeding and % of migrated cells was calculated.
# activated CD4+ T-cells [2] = test: Extracellular acidification rate (ECAR), Seahorse analyzer, CD4+ T-cells; format: cell-based, mouse; details: for effect on glycolysis (ECAR trace) of metabolic drugs: 2-DG 1 mM, Rapamycin 200 nM, Metformin 2 mM, Etomoxir 100 μM
# Experimental: (§2) Measurement of lactate, glycolysis, glucose uptake/flux and cell death: Lactate concentration was measured in the synovial fluid or peritoneal lavage using the Lactate assay Kit (Biovision), according to the manufacturer's instructions. Glycolytic metabolism was measured with a Seahorse XF24 Extracellular Flux Analyzer. Briefly, T-cells were grown in high glucose RPMI-1640 supplemented with 10% FCS. […] T-cell viability upon lactate or metabolic drug treatment was assessed by trypan blue exclusion assay.
# activated CD4+ T-cells [3] = test: In vivo peritoneal recruitment model (CXCL10 i.p.) of pre-treated activated CD4+ T-cells; details: cells pre-treated with Rapamycin 200 nM, 2-DG 1 mM, Metformin 2 mM; CXCL10 120 ng/mouse i.p.
# Experimental: In vivo peritoneal recruitment model: All the in vivo experiments were conducted under the UK Home Office regulation (PPL 70/7443). Activated T-cells (5×10^6/mouse) were pre-treated overnight with Rapamycin (200 nM), 2-Deoxyglucose (1 mM) or Metformin (2 mM), then labelled with the fluorescent cell dye DDAO (Invitrogen) and injected intravenously into syngeneic female C57BL/6 mice that had 3 hours prior received an intraperitoneal injection of CXCL10 (120 ng/mouse). 24 hours after injection, mice were sacrificed and spleen and peritoneal lavage were harvested. T-cells were stained for surface markers (CD4 and CD8, ebiosciences) and analysed by FACS. Cells were first gated on CD4 and subsequently analysed for DDAO positivity. This method was used in FIG. 3G and S3E.
# naive T-cells = test: In vitro chemotaxis of naive T-cells towards CCL19/21; format: cell-based, mouse; details: CCL19/21 200 ng/ml each; Rapamycin 200 nM, 2-DG 1 mM, Metformin 2 mM
# Text: as §1
# Slc16a1 on CD8+ T-cells = molecular target: T1, Slc16a1 on CD8+ T-cells (Mus musculus, UniProt P53986); test: Blockade of Slc16a1: chemokinesis of CD8+ T-cells exposed to lactic-acid; format: cell-based; details: lactic-acid 10 mM; CHC 425 μM, phloretin 25 μM, antibody 2.5 μg/ml, AR-C155858 increasing concentrations
# T1 construct: endogenous in cells
# T1 sequence (P53986 1-493): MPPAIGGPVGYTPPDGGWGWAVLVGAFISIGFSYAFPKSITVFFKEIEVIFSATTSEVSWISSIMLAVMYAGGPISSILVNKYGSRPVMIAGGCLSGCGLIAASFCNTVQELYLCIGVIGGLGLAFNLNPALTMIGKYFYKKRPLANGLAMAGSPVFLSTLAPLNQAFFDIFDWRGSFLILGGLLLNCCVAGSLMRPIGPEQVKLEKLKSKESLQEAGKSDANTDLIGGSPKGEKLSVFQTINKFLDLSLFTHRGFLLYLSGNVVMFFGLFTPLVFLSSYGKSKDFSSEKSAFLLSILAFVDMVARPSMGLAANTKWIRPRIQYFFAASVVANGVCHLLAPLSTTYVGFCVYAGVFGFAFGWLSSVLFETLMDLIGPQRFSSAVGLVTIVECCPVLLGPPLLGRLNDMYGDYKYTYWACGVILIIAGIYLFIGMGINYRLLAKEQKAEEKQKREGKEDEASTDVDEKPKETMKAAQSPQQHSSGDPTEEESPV
# T1 sequence (P18572 140-389 partner limits assumed): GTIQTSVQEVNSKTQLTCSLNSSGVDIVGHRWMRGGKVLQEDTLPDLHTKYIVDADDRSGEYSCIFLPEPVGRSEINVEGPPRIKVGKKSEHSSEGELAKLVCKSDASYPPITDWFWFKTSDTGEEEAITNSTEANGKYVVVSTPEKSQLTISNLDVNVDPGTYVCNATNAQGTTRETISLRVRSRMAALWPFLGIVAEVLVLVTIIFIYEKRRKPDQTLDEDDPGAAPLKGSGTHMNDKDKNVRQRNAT
# Text: as §1
# [4] = test system: CD4+ and CD8+ T-cells in the peritoneum; test: Zymosan-induced peritonitis: T-cells in peritoneal lavage; format: in vivo, mouse; details: i.p. day 5 after zymosan, phloretin 50 μM, antibody 5 μg/ml, 24 h
# Experimental: The inventors used a well-established mouse model of zymosan-induced peritonitis, in which T-cells are recruited to the inflamed site 5 days after zymosan injection (Montero-Melendez et al 2011 Am J Pathol 179: 259-269). C57BL/6 mice were injected in the peritoneal cavity with zymosan (1 mg/mouse) on day 0 or left untreated. On day 5, Phloretin, an anti-Slc5a12 antibody or an isotype control antibody were injected into the peritoneal cavity. 24 hours later, mice were sacrificed and the peritoneal lavage was harvested.
# (§3) In vivo zymosan-induced peritonitis: C57BL/6 mice were injected in the peritoneal cavity with zymosan (1 mg per mouse) on day 0 or left untreated. On day 5, Phloretin (50 μM), anti-Slc5a12 antibody (5 μg/ml) or anti-rabbit IgG isotype control antibody (5 μg/ml; Invitrogen) were injected into the peritoneal cavity. 24 hours later, mice were sacrificed and the peritoneal lavage was harvested. T-cells were stained for surface markers (CD4 and CD8; ebiosciences) and analyzed by FACS. This method was used in FIG. 6B and S6A-B. Alternatively C57BL/6 mice were injected in the peritoneal cavity with zymosan (1 mg per mouse) on day 0. […] T-cells were stained for surface markers (CD4 and CD8; ebiosciences) and analyzed by FACS. Cells were first gated on CD4 and subsequently analysed for CFSE positivity. […]
# [5] = test system: CFSE-labelled CD4+ T-cells; test: Zymosan-induced peritonitis: adoptive transfer of CFSE-labelled CD4+ T-cells; format: in vivo, mouse; details: co-injected i.p. day 5 after zymosan; 24 h
# Experimental: To establish that the decrease in T-cell localization to the peritoneal cavity was at least in part due to their increased release from this site, the inventors performed adoptive transfer experiments whereby CFSE-labelled CD4+ T-cells were co-injected with anti-Slc5a12 antibody, phloretin or an isotype control antibody in the peritoneal cavity of mice which had received zymosan (1 mg/mouse) 5 days before, to create an environment rich of lactate (FIG. 12A). 24 hours after the intra-peritoneal injection of CFSE-labelled CD4+ T-cells, mice were sacrificed, and peritoneal lavage and spleen were harvested.
# as §3, with “FACS.” for “FACS. This method was used in FIG. 6B and S6A-B. Alternatively C57BL/6 mice were injected in the peritoneal cavity with zymosan (1 mg per mouse) on day 0.”
# activated CD8+ T-cells = test: In vitro chemokinesis of activated CD8+ T-cells towards CXCL10 (transwell); format: cell-based, mouse; details: 10 mM lactic acid or sodium lactate; CXCL10 300 ng/ml
# Text: as §1
# activated CD4+ T-cells [6] = test: CCL5-induced chemokinesis of activated CD4+ T-cells; format: cell-based, mouse; details: 10 mM; CCL5 50 ng/ml
# Text: as §1
# activated CD4+ T-cells [7] = test: Western blot of glycolytic enzymes in activated CD4+ T-cells treated with CXCL10; format: cell-based, mouse; details: CXCL10 1000 ng/ml; sodium-lactate 10 mM
# Experimental: Western blot: Protein lysates were prepared from activated T-cells in RIPA buffer. Proteins were separated with SDS-PAGE and transferred to a Nylon membrane (GE Healthcare). Membranes were blocked for 2 h at room temperature in 5% Milk/TBST, incubated overnight at 4° C. with primary antibodies (1:1000) and subsequently with HRP-conjugated secondary antibody (Amersham Bioscience) (1:5000). Antibodies against hexokinase 1, pyruvate kinase M1/2, Aldolase A, Enolase 1 and 6-actin were purchased from Cell Signaling; antibodies against Slc16a1 and Slc5a12 were purchased from Abeam.
# activated CD4+ T-cells [8] = test: Glucose uptake and flux with 2-NBDG / 6-NBDG in CD4+ T-cells; format: cell-based, mouse; details: 10 mM; 2-NBDG and 6-NBDG probes
# Experimental: as §2
# [9] = test system: CD4+ subsets Th0, Th1, Th2 and Th17; test: qRT-PCR of cytokines and Rorc in Th0, Th1, Th2, Th17 subsets; format: cell-based, mouse; details: sodium-lactate 10 mM
# Experimental: RNA isolation and reverse transcription: RNA was isolated from 10^6 cells or 10 mg RA synovial tissue using commercially available kits (Qiagen) or Trizol (Life) according to the manufacturer's instructions and assessed for quality and quantity using absorption measurements. Reverse transcription to cDNA was performed according to the manufacturer's instruction (Applied Biosystems).
# qRT-PCR: Gene expression analysis was done using SYBR Green Supermix (Biorad) in CFX connect light cycler (Biorad), according to the manufacturer's instructions. Gene relative expression was calculated using the rlAct method and normalized to a reference control (RplpO). Primers for qRT-PCR were designed with the assistance of online tools (Primer 3PIus) using at least one exon junction binding site per primer pair where possible. A complete list of primers used is available in Table 2 below. Gene accession numbers are shown according to GenBank.
# Th subset differentiation: T-cells were isolated from murine lymph nodes and enriched for CD3+ and subsequently CD4+ subsets. 10^6 cells were plated/well and differentiated towards Th0, Th1, Th2 and Th17 phenotype. Conditions were: Th0 (10 ng/ml IL-2); Th1 (10 ng/ml IL-2; 3.4 ng/ml IL-12; 2 μg/ml Anti-IL-4); Th2 (10 ng/ml IL-2; 10 ng/ml IL-4; 2 μg/ml Anti-IFN-γ); Th17 (10 ng/ml IL-6; 2 μg/ml Anti-IL-4; 2 μg/ml Anti-IFN-γ, 5 ng/ml TGF-β). All antibodies and cytokines were purchased from PeproTech.
# activated CD4+ T-cells [10] = test: Intracellular staining of IL-17 in activated CD4+ T-cells; format: cell-based, mouse; details: sodium-lactate 10 mM vs untreated
# Experimental: Intracellular protein staining: Differentiated T-cells were incubated in permeabilization/fixation buffer (ebioscience) overnight at 4° C. Samples were washed in permeabilization buffer (ebioscience) and stained for the cytokines IFN-γ and IL-17, using fluorescently conjugated primary antibodies (1:200, ebiosciences) at 4° C. for 30 minutes, and assessed by flow cytometry using a LSR Fortessa (BD Biosciences) and FlowJo version 7.6.5 software.
structure (smiles),measurement,setting,value
"O=CC[C@@H](O)[C@H](O)[C@H](O)CO [2-DG, 2-deoxyglucose]",chemokinesis in vitro towards CXCL10 of pre-treated activated CD4+ T-cells,activated CD4+ T-cells [1],decrease
same,effect on glycolysis (ECAR trace) of metabolic drugs,activated CD4+ T-cells [2],inhibition of glycolysis
same,chemokinesis in vivo: T-cell recruitment to the peritoneum,activated CD4+ T-cells [3],decrease
same,naive T-lymphocyte motility,naive T-cells,decrease
"N#CC(=Cc1ccc(O)cc1)C(=O)O [CHC, α-cyano-4-hydroxycinnamate]",chemokinesis of CD8+ T-cells exposed to lactic-acid upon blockade of Slc16a1,Slc16a1 on CD8+ T-cells,restored
CCOC(=O)[C@@]1(CCCCCCOc2ccc(Cl)cc2)CO1 [etomoxir],effect on glycolysis (ECAR trace) of metabolic drugs,activated CD4+ T-cells [2],only minor effects
CN(C)C(=N)N=C(N)N [metformin],chemokinesis in vitro towards CXCL10 of pre-treated activated CD4+ T-cells,activated CD4+ T-cells [1],increased
same,effect on glycolysis (ECAR trace) of metabolic drugs,activated CD4+ T-cells [2],activation of glycolysis
same,chemokinesis in vivo: T-cell recruitment to the peritoneum,activated CD4+ T-cells [3],increased
same,naive T-lymphocyte motility,naive T-cells,reduced
O=C(CCc1ccc(O)cc1)c1c(O)cc(O)cc1O [phloretin],chemokinesis of CD8+ T-cells exposed to lactic-acid upon blockade of Slc16a1,Slc16a1 on CD8+ T-cells,restored
same,CD8+ T-cells in the peritoneum,[4],significant decrease
same,CD4+ T-cells in the peritoneum,[4]; vs isotype control,did not show any effect
same,adoptively transferred T-cells in the peritoneum,[5],not
same,adoptively transferred T-cells in the spleen,[5],not
CC(O)C(=O)[O-].[Na+] (stereo not drawn) [sodium-lactate],CXCL10-induced chemokinesis of activated CD4+ T-cells,"activated CD4+ T-cells [1]; 10 mM lactic acid or sodium lactate, CXCL10 300 ng/ml",inhibited
same,EC50,"activated CD4+ T-cells [1]; increasing concentration of sodium lactate, CXCL10 300 ng/ml, read-out: EC50 for decrease of migration of CD4+ T-cells",~10 mM
same,CXCL10-induced chemokinesis of activated CD8+ T-cells,activated CD8+ T-cells,not vice versa
same,CCL5-induced migration of CD4+ T-cells,activated CD4+ T-cells [6],decreased
same,CXCL10-induced upregulation of glycolytic enzymes,activated CD4+ T-cells [7],inhibited
same,glycolysis (ECAR) of CXCL10-stimulated CD4+ T-cells,"activated CD4+ T-cells [2]; CXCL10 1000 ng/ml, sodium-lactate 10 mM",shut down glycolysis
same,"ECAR of CD4+ T-cells, basal conditions","activated CD4+ T-cells [2]; sodium-lactate 10 mM, untreated control average 14 mpH/min",less than 5 mpH/min
same,glucose uptake and flux through glycolysis in CD4+ T-cells,activated CD4+ T-cells [8],selectively blocks
same,IL-17 gene expression in Th subsets,[9]; all the Th subsets,significant up-regulation
same,Rorc gene expression in Th subsets,[9]; all the Th subsets,significantly elevated
same,gene expression of Th1 and Th2 signature cytokines,"[9]; reduced: IL-4, IL-5, IL-13 in Th17 subset",unmodified upon treatment with sodium-lactate or even reduced
same,expression of IL-17 protein in CD4+ cells,activated CD4+ T-cells [10],increased
